Experimental data published in patent US11655492B2, “Activated formylglycine-generating enzymes and methods of producing and using the same” (R.P. Scherer Technologies, LLC, priority 2015, dated 2023).
Where “and” joins values, the source holds several entries; their conditions need not be identical. Equal values may be shown once.

Legend:
Sc-FGE = Sc-FGE (Streptomyces coelicolor, UniProt Q9F3C7); assay type: biochemical, S. coelicolor
Hs-cFGE = target: T1, Hs-cFGE (Homo sapiens, UniProt Q8NBK3); conditions: 20 mM reducing agent on activated Hs-cFGE
T1 sequence (Q8NBK3 with tags, fused parts or gaps isoform Q8NBK3-4): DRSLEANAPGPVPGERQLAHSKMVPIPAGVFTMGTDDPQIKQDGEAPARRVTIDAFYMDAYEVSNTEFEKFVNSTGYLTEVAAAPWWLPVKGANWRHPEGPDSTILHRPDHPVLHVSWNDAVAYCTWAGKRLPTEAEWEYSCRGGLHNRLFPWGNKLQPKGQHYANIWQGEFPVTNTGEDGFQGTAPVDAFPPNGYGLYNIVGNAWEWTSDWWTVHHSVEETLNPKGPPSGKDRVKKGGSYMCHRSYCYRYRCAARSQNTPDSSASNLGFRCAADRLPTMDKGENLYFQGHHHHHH

[1] = as measured versus glutathione disulfide; cited from earlier work
FGE = target: T2, FGE (Homo sapiens, UniProt Q8NBK3); test: FGE reaction mixtures with reductants or additives (product formation); assay type: biochemical; conditions: reducing agent used as stoichiometric reductant, in large excess
T2 construct: made in house
T2 sequence (Q8NBK3 with tags, fused parts or gaps isoform Q8NBK3-4): T1 sequence (Q8NBK3 with tags, fused parts or gaps isoform Q8NBK3-4)
Protocol: The specific activity of FGE was measured using a discontinuous enzymatic activity assay. […] The rate of reaction was determined by integrating the peak areas at 215 nm of the substrate cysteine (Csub) and product (fGly) peptides on reversed-phase HPLC. […] Each aqueous reaction solution (120 μL) contained Csub (100 μM), FGE (0.1-1 μM), DTT (1 mM), and buffer (25 mM TEAM, pH 9). A single time course included 5 data points collected at evenly spaced intervals. The reaction was initiated upon addition of FGE stock solution and vortexing for 3 s. The reaction vial was vortexed at 1,500 RPM and 25° C. in a thermomixer R (Eppendorf). Time points were hand quenched by adding 20 μL of reaction mixture to 2 μL of 1 M HCl using a micropipettor. After completion of the reaction, each time point was analyzed by RP-HPLC (see below).
The conversion of Cys to fGly used a 2 H^+/2 e^− oxidation of the substrate Cys thiol as well as exchange of sulfur for oxygen. […] However, because O2 is a 4 H^+/4 e^− acceptor, a reducing agent was used to provide a second equivalent of 2 H^+ and 2 e^−, completing the reduction from O2 to 2 mol H2O. […] A mixture of reductant (DTT) and O2 was used for routine activity measurements.

CT-1.1 tagged Her2 = test: 293 Expi transient co-transfection of FGE form and CT tagged antibody, conversion by mass-spectrometry; assay type: cell-based
Protocol: A 293 Expi transient co-transfection system (Life Technologies) was used for producing antibodies having a formylglycine residue at a selected site. The system produced high antibody titers (100-500 mg/L) with variable (10-95%) conversion. […] Expi 293F that were treated with or without 50 μM copper sulfate prior to transfection were transiently co-transfected in three independent experiments with expression plasmids for full-length human FGE with an N-terminal KDEL (SEQ ID NO:7) amino acid sequence (+KDEL) and CT tagged antibody at a ratio of 3:1 antibody:FGE DNA. The culture was harvested at 5-6 days post transfection, titer assessed by ELISA, and the protein was purified and conversion was measured by mass-spectrometry.
Expi 293F cells that were treated with or without 50 μM copper sulfate prior to transfection were transiently co-transfected with expression plasmids for various forms of human FGE (+KDEL, WT, myc-His) and CT tagged antibody at a ratio of 3:1 antibody:FGE DNA. The culture was harvested at 5 days post transfection, titer assessed by ELISA, the protein was purified and conversion was measured by mass-spectrometry.

ATP production = ATP production dose response (Cell titerglo, 4 hour treatment); assay type: cell-based
Protocol: (§1) Several experiments were run treating cells with DCA at several concentrations (DCA: 0 μM; 16 μM; 80 μM; 400 μM; 2000 μM; 10,000 μM; and 50,000 μM) and treating cells with Cu^2+ (copper sulfate) and rotenone (Rotenone: 0 nM; 5 nM; 24 nM; 120 nM; 600 nM; 3000 nM; and 15,000 nM) at several concentrations. Cells were plated and 10 μL of DCA or rotenone was added for a 4 hour treatment. Cells were equilibrated to room temperature 100 μL/well of Cell titerglo reagent (Promega) was added to each well. The plates were shaken of 2 min, incubated at room temperature for 10 min, and then read on a plate reader.

human FGE = human FGE (Homo sapiens, UniProt Q8NBK3); test: Effect of stimulators and inhibitors of oxidative phosphorylation on conversion; assay type: cell-based; conditions: DCA 0-50,000 μM; rotenone 0-15,000 nM with Cu^2+
Protocol: Experiments were performed to determine the effect of stimulators and inhibitors of oxidative phosphorylation on conversion efficiency for human FGE, as compared to Cu^2+.
as §1

[2] = tested on: IgG containing the aldehyde tag; test: In vitro conversion of intact mAb with FGE, fGly by LC-MRM/MS; assay type: biochemical
Protocol: DTT (20 mM) was added to a solution of mAb (20 μg) in buffered aqueous solution (25 mM NH4HCO3) to a final volume of 20 μL. The tube containing the sample was incubated at 37° C. for 15 min at 1500 RPM. Then, HCl (50 mM) was added to the solution and the tube was vortexed until mixed. Next, ammonium bicarbonate (100 mM) was added to the solution and the tube was vortexed until mixed. Trypsin (1 μg) and iodoacetamide (50 mM) were added, and the tube was incubated at 37° C. and 1500 RPM for 60 min in the dark. Finally, sodium citrate (150 mM, pH 5.5) and methoxylamine (100 mM) were added to the solution, and the tube was incubated at 37° C. for 16 h. The processed sample was then analyzed by LC-MRM/MS. The MRM transitions included modifications of the Cys-containing peptide including: cysteine, cysteine modified with iodoacetamide, formylglycine, formylglycine hydrate (including loss of water in the collision cell), and formylglycine methyl oxime. The abundance of each species was defined by its 5 most intense precursor/product ion pairs, which were integrated to give the total signal and relative fractions of each component. In the optimized digestion and capping procedure described above, unreacted Cys, fGly, or fGly-hydrate above background was not detected, observing only carboxyacetamidomethyl Cys (CAM) and the methyl oxime of fGly (MeOx). […]

[3] = tested on: 14 amino acid peptide ALCTPSRGSLFTGR (SEQ ID NO:8); test: Discontinuous FGE activity assay on peptide substrate (RP-HPLC); assay type: biochemical
Protocol: [formula] where Et is the total enzyme in solution, and kcat and KM are the standard enzymatic parameters specified by the STRENDA commission. Units of enzyme specific activity are the katal, where 1 kat=1 mol·s^−1. Kinetic parameters were determined from nonlinear regression of [substrate] v. initial velocity using GraphPad prism.
The specific activity of FGE was measuring using a discontinuous enzymatic activity assay. The substrate for FGE was a 14 amino acid peptide containing the consensus sequence (H2N-[…]-COOH (SEQ ID NO:8)). The rate of reaction was determined by integrating the peak area at 215 nm of the starting material (Cys) and product (fGly) containing peptides on reversed-phase HPLC. The identity of product (and side product) peaks were determined by RP-HPLC MS/MS. Each aqueous reaction solution (60 μL) contained substrate peptide (100 μM), FGE (1 μM), DTT (1 mM), and buffer (25 mM triethanolamine, pH 9). A single time course consisted of 5 data points collected every 2 minutes. The reaction was initiated upon addition of FGE stock solution and vortexing for 3 s. Time points were quenched by diluting 10 μL of reaction mixture into 1 μL of 1 M HCl by hand with a micropipettor. After completion of the reaction, each time point was analyzed by RP-HPLC.
Substrate, product, and side products of the FGE substrate peptide […] (SEQ ID NO:8) were separated on RP-HPLC over 7 min with isocratic 18% MeCN in water containing 0.1% TFA. The integrated area of the fGly (2.1 min), Cys (3.3 min), βME-DS (3.6 min), and Cys-DS (6.2 min) forms of the substrate were used to calculate total area and each fraction thereof.
The specific activity of FGE was measured using a discontinuous enzymatic activity assay. The substrate for FGE was a 14 amino acid peptide containing the CXPXR consensus sequence ([…] (SEQ ID NO:8)). The rate of reaction was determined by integrating the peak areas at 215 nm of the substrate cysteine (Csub) and product (fGly) peptides on reversed-phase HPLC. The identities of product (and side product) peaks were determined by RP-HPLC MS/MS (see below). Each aqueous reaction solution (120 μL) contained Csub (100 μM), FGE (0.1-1 μM), DTT (1 mM), and buffer (25 mM TEAM, pH 9). A single time course included 5 data points collected at evenly spaced intervals. The reaction was initiated upon addition of FGE stock solution and vortexing for 3 s. The reaction vial was vortexed at 1,500 RPM and 25° C. in a thermomixer R (Eppendorf). Time points were hand quenched by adding 20 μL of reaction mixture to 2 μL of 1 M HCl using a micropipettor. After completion of the reaction, each time point was analyzed by RP-HPLC (see below).
Substrate, product, and side products of the FGE substrate peptide […] (SEQ ID NO:8) were separated on RP-HPLC over 7 min with isocratic 18% MeCN in water containing 0.1% TFA. The integrated areas of the fGly (2.1 min), Csub (3.3 min), the Csub/βME disulfide (Csub-βME, 3.6 min), and substrate/substrate disulfide (Csub-Csub, 6.1 min) forms of the substrate were used to calculate total area and each fraction thereof.
Individual FGE reactions were initiated by rapidly mixing FGE into a premixed buffered solution of Csub and reducing agent. It was assumed that all buffered solutions contained oxygen at ˜270 μM at 25° C. (based upon Henry's law). Time points were chemically quenched by hand with HCl. […]. The identities of both the Cys- and fGly-containing peptides were confirmed by LC-MS/MS (FIG. 11). These assignments were then correlated with HPLC retention times (FIG. 14, panel a). The integrated peak areas of substrate and product were used to calculate the initial velocity of FGE (FIG. 14, panel b) using the method described by Boeker (Biochem. J., (1984), 223, 15; and Biochem. J., (1985), 226, 29).

[4] = nonlinear regression to Michaelis-Menten equation

Chain of Sc-FGE (Q9F3C7 whole entry): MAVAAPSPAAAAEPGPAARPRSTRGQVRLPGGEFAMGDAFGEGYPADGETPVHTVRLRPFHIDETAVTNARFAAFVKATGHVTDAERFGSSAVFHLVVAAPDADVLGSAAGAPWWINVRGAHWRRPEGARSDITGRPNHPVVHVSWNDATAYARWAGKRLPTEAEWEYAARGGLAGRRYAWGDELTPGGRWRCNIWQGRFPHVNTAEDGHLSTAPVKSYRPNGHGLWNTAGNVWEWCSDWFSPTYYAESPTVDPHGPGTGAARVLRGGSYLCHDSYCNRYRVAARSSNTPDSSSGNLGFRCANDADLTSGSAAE
Chain of human FGE (Q8NBK3 34-374): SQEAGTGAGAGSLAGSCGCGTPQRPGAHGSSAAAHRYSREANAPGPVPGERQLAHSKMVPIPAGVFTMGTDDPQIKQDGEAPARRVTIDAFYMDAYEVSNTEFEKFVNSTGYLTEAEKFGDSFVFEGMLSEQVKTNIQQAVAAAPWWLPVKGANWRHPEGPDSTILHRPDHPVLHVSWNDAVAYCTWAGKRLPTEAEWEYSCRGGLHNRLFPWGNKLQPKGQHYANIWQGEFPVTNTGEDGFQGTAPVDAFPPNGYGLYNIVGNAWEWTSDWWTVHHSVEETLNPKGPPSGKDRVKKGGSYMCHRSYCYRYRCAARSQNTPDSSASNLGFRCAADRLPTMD
Protocol for SQR: A Western blotting was performed on lysates from cells treated with Cu^2+ or not treated with Cu^2+, using antibodies against SQR to determine whether Cu^2+ increased the levels of SQR. […] Experiments were also performed to test whether overexpression of SQR in Expi cells could be a substitute for Cu^2+ in increasing conversion.

## O[C@H](CS)[C@H](O)CS (racemic) [DTT, dithiothreitol]
Sc-FGE; activated Sc-FGE, reductant and/or chelator, 15 mM each, 1 h, 37° C.
  effect of pretreatment of activated enzyme on specific activity: do not change
Sc-FGE; excess (100 molar equiv), 1 h at 25° C., reagent removed by gel filtration
  effect of pretreatment on specific activity: did not change
Hs-cFGE
  effect of treatment on specific activity: unchanged specific activity
[1]
  thiol-disulfide exchange rate constant k: 6×10^5
FGE
  rate of product formation: 3.27 min⁻¹

## O=S(=O)([O-])[O-].[Cu+2] [Cu^2+, copper(II) sulfate]
CHO cells
  cell viability: does not significantly change
CT-1.1 tagged Her2
  effect on conversion: enhances conversion
SQR
  levels of SQR: No significant difference

## C=C(C)[C@H]1Cc2c(ccc3c2O[C@@H]2COc4cc(OC)c(OC)cc4[C@@H]2C3=O)O1 [rotenone, Rotenone]
ATP production
  ATP production: affected ATP production as expected
Human FGE
  effect on conversion: no effect on conversion

## OCCS [βME, β-mercaptoethanol]
[1]
  thiol-disulfide exchange rate constant k: 1
FGE
  rate of product formation: 5.07 min⁻¹

B1: Hs-cFGE: catalytic core of H. sapiens FGE with C-terminal His6 tag (SEQ ID NO. 11), expressed in Hi5 insect cells (protein)
chain: T1 sequence (Q8NBK3 with tags, fused parts or gaps isoform Q8NBK3-4)
[2]; after in vitro conversion
  fGly content in the antibody: 95-100%
[2]; in vitro conversion of aldehyde tagged mAb
  conversion yield from Cys to fGly: 90-100% and > 90%
[3]; 5 molar equiv of CuSO4, 1 h at 25° C., activated vs as purified
  increase of specific activity on activation: 3
[3]; after activation with 5 molar equiv of CuSO4, 1 h at 25° C., excess copper removed
  specific activity: 3,050±115 pkat·mg^−1
[3]; as purified from cell culture, not activated
  specific activity: 1,143 pkat·mg^−1 and 1,143±84 pkat·mg^−1
[3]; from kcat/KM
  efficiency relative to bacterial counterpart (Sc-FGE): approximately 10 fold
[3]; [4]
  Km: 0.34 µM
  kcat: 0.101 s⁻¹
